This is an account of results in patent US20110178104A1, “Anti-Heparin Compounds” (POLYMEDIX INC., priority 2010, published 2011).

A value given as a limit tells only on which side of the number the result lay.

Usually EC50 stands for the midpoint of the concentration-response curve.

Experiment [1] deals with Unfractionated heparin. Kind of experiment: aPTT clotting assay, UFH 0.4 U/mL in plasma (Example 10). It counts as biochemical. To be noted: unfractionated heparin 0.4 U/mL in plasma; aPTT clotting. The protocol: aPTT clotting Assay: Unfractionated heparin was mixed with plasma at a final concentration of 0.4 U/mL (or concentration which increases aPTT time to between 120 and 300 seconds). […] The ACL Elite Hemostasis analyzer (Beckman Coulter™) was used to add aPTT reagent (HemosIL SynthASil) to supplemented plasma. Clotting was initiated by addition of CaCl2 and time to clot was recorded.

The subject of experiment [2] is enoxaparin. The experiment is described as follows: FXa amidolytic assay (Example 10), enoxaparin. To be noted: read-out: Enox FXa EC50; enoxaparin 0.1 ug/ml; human antithrombin, bovine Factor Xa.
Protocol: (§1) Two μl of test agent are added (range between 0.01 and 23 ug/ml) and incubated for 5 minutes at 23° C. Bovine Factor Xa was added to a final concentration of 0.636 nkat/mL and incubated for a further 10 minutes at 23° C.
Experiment [3] has as its system tinzaparin. The experiment is described as follows: FXa amidolytic assay (Example 10), tinzaparin. To be noted: read-out: Tinzap FXa EC50; tinzaparin 0.1 ug/ml; human antithrombin, bovine Factor Xa.
Protocol: as §1
Experiment [4] deals with fondaparinux. Kind of experiment: FXa amidolytic assay (Example 10), fondaparinux. To be noted: read-out: Fondap FXa EC50; fondaparinux 0.02 μg/mL; human antithrombin, bovine Factor Xa.
Protocol: as §1

On to `COc1ccc(NC(=O)[C@H](CCCCN)NC(=O)c2cc(NC(=O)[C@H](CCCCN)NC(=O)c3cc(NC(=O)[C@H](CCCCN)NC(=O)c4cccc(NC(=O)[C@@H](N)CCCCN)c4)ccc3OC)ccc2OC)cc1C(N)=O` [Compound 216], for which the EC50 worked out at 1.22 µM in experiment [1], 0.347 µM in experiment [2], 0.191 µM in experiment [3] and 7.87 µM in experiment [4].
Take `COc1ccc(NC(=O)[C@H](CCCCN)NC(=O)c2cc(NC(=O)[C@H](CCCCN)NC(=O)c3cc(NC(=O)[C@H](CCCCN)NC(=O)c4cccc(N(C)C(=O)[C@@H](N)CCCCN)c4)ccc3OC)ccc2OC)cc1C(N)=O` [Compound 242]: the half-maximal effective concentration (EC50) in experiment [1] was 1.39 µM; in experiment [2], over 5 µM; in experiment [3], over 5 µM; in experiment [4], over 10 µM.
Turning to `CSc1ccc(NC(=O)[C@H](CCCNC(=N)N)NC(=O)c2cc(NC(=O)[C@H](CCCNC(=N)N)NC(=O)c3cc(NC(=O)[C@H](CCCNC(=N)N)NC(=O)c4cc(NC(=O)[C@@H](N)CCCNC(=N)N)ccc4SC)ccc3SC)ccc2SC)cc1C(N)=O` [Compound 235], the EC50 is over 10 µM in experiment [1], 0.497 µM in experiment [2], 0.433 µM in experiment [3] and 10.7 µM in experiment [4].
Turning to `COc1ccc(NC(=O)[C@H](CCCCN)NC(=O)c2cc(NC(=O)[C@H](CCCCN)NC(=O)c3cc(NC(=O)[C@H](CCCCN)NC(=O)c4cc(NC(=O)[C@@H](N)CCCCN)ccc4OCC(=O)O)ccc3OC)ccc2OC)cc1C(N)=O` [Compound 272], the EC50 in experiment [1] was determined as 3.09 µM; in experiment [2] it was 0.541 µM; in experiment [3], 0.24 µM; in experiment [4], 7.69 µM.
In the same order, the values of `COc1ccc(NC(=O)[C@H](CCCCN)NC(=O)c2cc(NC(=O)[C@@H](N)CCCCN)ccc2OC)cc1C(=O)N[C@@H](CCCCN)C(=O)Nc1ccc(OC)c(C(=O)N[C@@H](CCCCN)C(=O)Nc2ccc(SC)c(C(N)=O)c2)c1` [Compound 253] are 1.66 µM, 1.07 µM, 0.472 µM and over 10 µM.
The like results for `COc1cc(OC)c(C(=O)N[C@H]2CC[C@@H](NC(=O)c3cc(C(=O)N4CCC(CN)CC4)c(OCCCCCN)cc3OCCCCCN)CC2)cc1C(=O)N[C@H]1CC[C@@H](N=C(N(C)C)N(C)C)CC1` [Compound 424] were, in that order, over 10 µM, over 5 µM, over 5 µM and over 10 µM.
In the same order, the values of `COc1cc(OC)c(C(=O)N[C@H]2CC[C@@H](NC(=O)c3cc(C(=O)N4CCC(N)CC4)c(OC)cc3OC)CC2)cc1C(=O)N[C@H]1CC[C@@H](NC(=O)c2cc(C(=O)N3CCC(N)CC3)c(OC)cc2OC)CC1` [Compound 419] are over 10 µM, over 5 µM, over 5 µM and over 10 µM.
Consider `COc1ccc(NC(=O)[C@H](CCCCN)NC(=O)c2cc(NC(=O)[C@H](CCCCN)NC(=O)c3cc(NC(=O)[C@H](CCCCN)NC(=O)c4cc(NC(=O)[C@H](CCCCN)NC(=O)c5cccc(C(=O)O)c5)ccc4OC)ccc3OC)ccc2OC)cc1C(N)=O` [Compound 342], for which the EC50 in experiment [1] amounted to 2.35 µM; in experiment [2] it was 0.153 µM; in experiment [3], 0.147 µM; in experiment [4], 0.167 µM.
The like results for `COc1ccc(NC(=O)[C@H](CCCCN)NC(=O)c2cc(NC(=O)[C@H](CCCCN)NC(=O)c3cc(NC(=O)[C@H](CCCCN)NC(=O)c4cc(NC(=O)[C@H](C)N)ccc4OC)ccc3OC)ccc2OC)cc1C(N)=O` [Compound 233] were, in that order, 1.59 µM, 0.376 µM, 0.268 µM and 3.46 µM.
The like results for `COC(=O)c1cc(NC(=O)[C@H](CCCCN)NC(=O)c2cc(NC(=O)[C@H](CCCCN)NC(=O)c3cc(NC(=O)[C@H](CCCCN)NC(=O)c4cc(NC(=O)[C@@H](N)CCCCN)ccc4OC)ccc3OC)ccc2OC)ccc1OC` [Compound 249] were, in that order, 1.42 µM, 0.466 µM, 0.215 µM and 10.6 µM.
The like results for `COc1ccc(NC(=O)[C@H](CCCCN)NC(=O)c2cc(NC(=O)[C@H](CCCCN)NC(=O)c3cc(NC(=O)[C@H](CCCCN)NC(=O)c4cc(NC(=O)[C@@H](N)CCC(=O)O)ccc4OC)ccc3OC)ccc2OC)cc1C(N)=O` [Compound 318] were, in that order, 1.41 µM, 0.407 µM, 0.261 µM and 3.05 µM.
Regarding `[2H]C(C([2H])C([2H])([2H])CN)[C@H](N)C(=O)Nc1ccc(OC)c(C(=O)N[C@@H](CCCCN)C(=O)Nc2ccc(OC)c(C(=O)N[C@@H](CCCCN)C(=O)Nc3ccc(OC)c(C(=O)N[C@@H](CCCCN)C(=O)Nc4ccc(OC)c(C(N)=O)c4)c3)c2)c1` (stereo partly drawn) [Compound 230], the EC50 in experiment [1] amounted to 2.78 µM; in experiment [2] it was 0.252 µM; in experiment [3] it was 0.147 µM; in experiment [4], 4.88 µM.
Regarding `COc1ccc(NC(=O)[C@H](CCCNC(=N)N)NC(=O)c2cc(NC(=O)[C@H](CCCNC(=N)N)NC(=O)c3cc(NC(=O)[C@H](CCCNC(=N)N)NC(=O)c4cc(NC(=O)[C@@H](N)CCCNC(=N)N)ccc4OC)ccc3OC)ccc2OC)cc1C(=O)NCCC(=O)O` [Compound 285], the EC50 in experiment [1] was 2.15 µM; in experiment [2], 0.169 µM; in experiment [3], 0.151 µM; in experiment [4], 0.799 µM.
In the same order, the values of `COc1ccc(NC(=O)[C@@H](CCCNC(=N)N)NC(=O)c2cc(NC(=O)[C@@H](CCC(=O)O)NC(=O)c3cc(NC(=O)[C@@H](CCCNC(=N)N)NC(=O)c4cc(NC(=O)[C@H](N)CCCNC(=N)N)ccc4OC)ccc3OC)ccc2OC)cc1C(N)=O` [Compound 320] are 2.42 µM, 0.901 µM, 0.285 µM and 4.89 µM.
The like results for `COc1cc(OC)c(C(=O)NCCCNC(=O)c2cc(C(=O)NCCN)c(OC)cc2OC)cc1C(=O)O` [Compound 392] were, in that order, over 10 µM, over 5 µM, over 5 µM and over 10 µM.
The like results for `COc1cc(OC)c(C(=O)Nc2ccc(NC(=O)c3cc(C(=O)Nc4ccc(NC(=O)c5cc(C(=O)NCCN)c(OC)cc5OC)cc4)c(OC)cc3OC)cc2)cc1C(=O)NCCN` [Compound 421] were, in that order, 1.2 µM, 0.238 µM, 0.22 µM and 0.159 µM.
Take `COc1cc(OC)c(C(=O)N[C@H]2CC[C@@H](NC(=O)c3cc(C(=O)N4CCC(CN)CC4)c(OCCCCCN)cc3OCCCCCN)CC2)cc1C(=O)N[C@H]1CC[C@@H](NC(=O)c2cc(C(=O)N3CCC(CN)CC3)c(OCCCCCN)cc2OCCCCCN)CC1` [Compound 423]: the 50% effective concentration (EC50) is 3.15 µM in experiment [1], 1.18 µM in experiment [2], 0.296 µM in experiment [3] and over 10 µM in experiment [4].
As for `COc1cc(OC)c(C(=O)N[C@H]2CC[C@@H](NC(=O)c3cc(C(=O)N4CCC(CN)CC4)c(OC)cc3OC)CC2)cc1C(=O)N[C@H]1CC[C@@H](N=C(N(C)C)N(C)C)CC1` [Compound 416], the concentration giving a half-maximal response (EC50) is over 10 µM in experiment [1], over 5 µM in experiment [2], over 5 µM in experiment [3] and over 10 µM in experiment [4].
On to `COc1ccc(NC(=O)[C@H](CCCCN)NC(=O)c2cc(NC(=O)[C@H](CCCNC(N)=O)NC(=O)c3cc(NC(=O)[C@H](CCCCN)NC(=O)c4cc(NC(=O)[C@@H](N)CCCCN)ccc4OC)ccc3OC)ccc2OC)cc1C(N)=O` [Compound 258], for which the EC50 in experiment [1] came to 1.52 µM; in experiment [2], 0.198 µM; in experiment [3] it was 0.132 µM; in experiment [4], 1.54 µM.
Take `COc1cc(OC)c(C(=O)N[C@H]2CC[C@@H](NC(=O)c3cc(C(=O)N[C@H]4CC[C@@H](N=C(N(C)C)N(C)C)CC4)c(OC)cc3OC)CC2)cc1C(=O)NCCCN` [Compound 405]: the 50% effective concentration (EC50) in experiment [1] is over 10 µM; in experiment [2], over 5 µM; in experiment [3], over 5 µM; in experiment [4], over 10 µM.
As for `COc1ccc(NC(=O)[C@@H](CCCNC(N)=O)NC(=O)c2cc(NC(=O)[C@@H](CCCNC(=N)N)NC(=O)c3cc(NC(=O)[C@@H](CCCNC(=N)N)NC(=O)c4cc(NC(=O)[C@H](N)CCCNC(=N)N)ccc4OC)ccc3OC)ccc2OC)cc1C(N)=O` [Compound 255], the 50% effective concentration (EC50) in experiment [1] is 1.72 µM; in experiment [2], 0.114 µM; in experiment [3] it was 0.119 µM; in experiment [4] it was 0.473 µM.
Consider `COc1ccc(NC(=O)[C@H](CCCCN)NC(=O)c2cc(NC(=O)[C@H](CCCCN)NC(=O)c3cc(NC(=O)[C@H](CCCCN)NC(=O)c4ccc(NC(=O)[C@@H](N)CCCCN)cc4)ccc3OC)ccc2OC)cc1C(N)=O` [Compound 241], for which the 50% effective concentration (EC50) in experiment [1] is 5.44 µM; in experiment [2] it was 0.431 µM; in experiment [3] it was 0.167 µM; in experiment [4], over 10 µM.
In the same order, the values of `COc1cc(OC)c(C(=O)N[C@H]2CC[C@@H](NC(=O)c3cc(C(=O)NC4CCNCC4)c(OCCCCCN)cc3OCCCCCN)CC2)cc1C(=O)N[C@H]1CC[C@@H](NC(=O)c2cc(C(=O)NC3CCNCC3)c(OCCCCCN)cc2OCCCCCN)CC1` [Compound 425] are 0.429 µM, 0.088 µM, 0.062 µM and 0.502 µM.
`COc1ccc(NC(=O)[C@H](CCCCN)NC(=O)c2cc(NC(=O)[C@H](CCCCN)NC(=O)c3cc(NC(=O)[C@H](CCCCN)NC(=O)c4cc(NC(=O)[C@@H](N)CCCCN)ccc4OC)ccc3OCC(=O)O)ccc2OC)cc1C(N)=O` [Compound 271]: the 50% effective concentration (EC50) in experiment [1] was 1.64 µM; in experiment [2], 0.219 µM; in experiment [3] it was 0.135 µM; in experiment [4] it was 3.12 µM.
